# Read-outs that look alike come from different tables or passages of the source.
# Assays:
# Human CCR5 receptor = molecular target: T1, Human CCR5 receptor (Homo sapiens, UniProt P51681); assay: Human CCR5 receptor-ligand binding assay (125I chemokine displacement on CHO-Gα16-hCCR5 cells); conditions: RT 2 h
# T1 construct: expressed in transfected cells
# Text: Human CCR5 Receptor-Ligand Binding Assay Protocol
# Human CCR5 receptor (Genebank ID: 29169292) was cloned into mammalian expression vector, pTarget (Promega). The construct was transfected into CHO-Gα16 cells by using Fugene Reagent (Roche). Clones were selected under antibiotic pressure (G418 and Hygromycin) and sorted 4 times with a fluorescence activates cell sorter and a monoclonal antibody specific for CCR5 receptor (BD Biosciences Pharmigen, Mab 2D7, Cat. No. 555993). The clone with highest expression (100,000 copies per cell) was chosen for the binding assays.
# Adherent cells in […] tissue culture flask (˜90% confluent) were harvested using 1 mM EDTA in PBS (phosphate-buffered saline) without Ca^2+ and Mg^2+. Cells were washed twice with PBS containing no Ca^2+ and Mg^2+. CHO-Gα16-hCCR5 cells were then resuspended (1×10^6/ml) in ice cold binding buffer (50 mM HEPES, 1 mM CaCl2, 5 mM MgCl2, 0.5% BSA, 0.05% NaN3, pH 7.24), pH 7.4), supplemented with freshly made 0.5% BSA and 0.05% NaN3.
# Eighty μl CHO-Gα16-hCCR5 (1×10^6/ml) cells were added to 96 well plates. All dilutions were made in binding buffer (50 mM HEPES, 1 mM CaCl2, 5 mM MgCl2, 0.5% BSA, 0.05% NaN3, pH 7.24).
# The plates were incubated on a cell shaker at RT for 2 h with a final concentration of 0.1 nM ^125I RANTES or ^125I MIP-1α or ^125I MIP-1β. The compound dilutions were made in PBS, 1% BSA. Total reaction volume was 100 μl per well. The test compounds were added to the cells prior to the addition of radioligand.
# After incubation, the cells were harvested onto GF/C filter plates using Packard cell harvester. Filters were pretreated with 0.3% PEI/0.2% BSA for 30 min. The filter plate was washed rapidly 5 times with 25 mM HEPES, 500 mM NaCl, 1 mM CaCl2 and 5 mM MgCl2 adjusted to pH 7.1. Plates were dried in oven (70° C.) for 20 min, added with 40 μl scintillation fluid and sealed with Packard TopSeal-A. Packard Top Count was used to measure of the radioactivity for 1 min per well.
# Total binding was determined with control wells added with radioisotope and buffer and the non-specific binding was determined using an excess cold RANTES to some of the control wells. Specific binding was determined by subtracting the non-specific form total binding. Results are expressed as the percentage of specific ^125I RANTES binding. IC50 values were determined using varying concentrations of the test ligand in triplicates and the data was analyzed using GraphPad Prism (GraphPad, San Diego, Calif.).
# [1] = 0.1 nM 125I MIP-1β, read-out: Binding IC50 Mip-1b
# [2] = 0.1 nM 125I RANTES, read-out: Binding IC50 RANTES
# [3] = 0.1 nM 125I MIP-1α, read-out: Binding IC50 Mip-1a
# T1 sequence (P51681 whole entry): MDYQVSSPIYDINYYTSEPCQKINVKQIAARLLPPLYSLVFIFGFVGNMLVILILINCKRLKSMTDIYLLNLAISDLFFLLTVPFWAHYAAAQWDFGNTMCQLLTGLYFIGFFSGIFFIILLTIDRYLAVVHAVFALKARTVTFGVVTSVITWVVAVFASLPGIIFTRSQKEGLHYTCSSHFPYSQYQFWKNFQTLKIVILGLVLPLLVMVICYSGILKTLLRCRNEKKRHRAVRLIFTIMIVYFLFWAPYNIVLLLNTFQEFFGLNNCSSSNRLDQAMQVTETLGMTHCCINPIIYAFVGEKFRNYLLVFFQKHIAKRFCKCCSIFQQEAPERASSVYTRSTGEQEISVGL
Compound,IC50 (Human CCR5 receptor; [1]) [nM],IC50 (Human CCR5 receptor; [2]) [nM],IC50 (Human CCR5 receptor; [3]) [nM],melting point [°C]
"4-Butyl-8-[1-(2,6-dimethyl-benzoyl)-piperidin-4-yl]-3-(2-methyl-butyl)-1-oxa-3,8-diaza-spiro[4.5]decan-2-one; compound with trifluoro-acetic acid [Compound I-90]",1.8,5.1,–,–
"CCCCC1N(CC2CCCCC2)C(=O)OC12CCN(C1CCN(C(=O)c3c(C)cccc3C)CC1)CC2 (stereo not shown) [Compound I-1, 4-Butyl-3-cyclohexylmethyl-8-[1-(2,6-dimethyl-benzoyl)-piperidin-4-yl]-1-oxa-3,8-diaza-spiro[4.5]decan-2-one]",13,14,18,–
"CCCCN1C(=O)C([C@@H](O)C2CCCCC2)NC(=O)C12CCN(C1CCN(C(=O)c3c(C)cccc3C)CC1)CC2 (stereo partly drawn) [Compound I-76, 1-Butyl-3-((S)-cyclohexyl-hydroxy-methyl)-9-[1-(2,6-dimethyl-benzoyl)-piperidin-4-yl]-1,4,9-triaza-spiro[5.5]undecane-2,5-dione]",–,–,–,246.9 to 248
"CCCCC1N(CC2CCCCC2)C(=O)OC12CCN(C1(C)CCN(C(=O)c3c(C)nn(Cc4ccccc4)c3C)CC1)CC2 (stereo not shown) [Compound I-214, 8-[1-(1-Benzyl-3,5-dimethyl-1H-pyrazole-4-carbonyl)-4-methyl-piperidin-4-yl]-4-butyl-3-cyclohexylmethyl-1-oxa-3,8-diaza-spiro[4.5]decan-2-one; compound with trifluoro-acetic acid]",–,8.2,–,–

# Results, then the compound that gave them:
IC50 (Human CCR5 receptor; [1]) [nM],IC50 (Human CCR5 receptor; [2]) [nM],IC50 (Human CCR5 receptor; [3]) [nM],melting point [°C],Compound
10.5,5.1,4.5,–,"CCCC[C@@H]1N(CC2CCCCC2)C(=O)OC12CCN(C1CCN(C(=O)c3c(C)cccc3C)CC1)CC2 [Compound I-159, (S)-4-Butyl-3-cyclohexylmethyl-8-[1-(2,6-dimethyl-benzoyl)-piperidin-4-yl]-1-oxa-3,8-diaza-spiro[4.5]decan-2-one]"
–,7.3,–,–,"CCCCC1N(CC2CCCCC2)C(=O)OC12CCN(C1(C)CCN(C(=O)c3c(C)ncnc3C)CC1)CC2 (stereo not shown) [Compound I-212, 4-Butyl-3-cyclohexylmethyl-8-[1-(4,6-dimethyl-pyrimidine-5-carbonyl)-4-methyl-piperidin-4-yl]-1-oxa-3,8-diaza-spiro[4.5]decan-2-one; compound with trifluoro-acetic acid]"
< 1.5,7.7,–,–,"CCCCC1CN(CC2CCOCC2)C(=O)OC12CCN(C1(C)CCN(C(=O)c3c(C)ncnc3C)CC1)CC2 (stereo not shown) [Compound I-415, 5-Butyl-9-[1-(4,6-dimethyl-pyrimidine-5-carbonyl)-4-methyl-piperidin-4-yl]-3-(tetrahydro-pyran-4-ylmethyl)-1-oxa-3,9-diaza-spiro[5.5]undecan-2-one; compound with trifluoro-acetic acid]"
